# Results from US7491819B1 (priority 2004, dated 2009).
# Molecular target: T1, HIV-integrase (Human immunodeficiency virus type 1 group M subtype B, UniProt P12497)
# T1 construct: Recombinant integrase (0.26 ng) was incubated with the beads
# Experiment: HIV-Integrase Inhibition Activity (SPA bead strand-transfer assay)
# Format: biochemical
# Conditions: Table 1; read-out: Activity (HIV-integrase inhibition, IC50 class)
# Outline: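 Biotin-labelled substrate DNA (5 pmole) bound to streptavidin SPA beads, preloaded with recombinant integrase (0.26 ng) for 90 min at 37° C, then washed. Inhibitors and 0.1 fmol P33-labelled target DNA added; reaction stopped with 10 mM EDTA. Integration read as scintillation CPM.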
row,Structure (SMILES),IC50
1,"CNC(=O)c1cc(F)ccc1CNC(=O)c1nc2n(c(=O)c1O)CCOC2C (stereo not drawn) [Example 9, Pyrimido[2,1-c][1,4]oxazine-2-carboxamide, N-[[4-fluoro-2-[(methylamino)carbonyl]phenyl]methyl]-4,6,7,9-tetrahydro-3-hydroxy-9-methyl-4-oxo-]",2 to 100 nM
2,"CNC(=O)c1cc(F)ccc1CNC(=O)c1nc2n(c(=O)c1O)CCOC2 [Example 3, Pyrimido[2,1-c][1,4]oxazine-2-carboxamide, N-[[4-fluoro-2-[(methylamino)carbonyl]phenyl]methyl]-4,6,7,9-tetrahydro-3-hydroxy-4-oxo-]",2 to 100 nM
3,"CC1(C)OCCn2c1nc(C(=O)NCc1ccc(F)cc1S(=O)(=O)N1CCC1)c(O)c2=O [Example 111, Pyrimido[2,1-c][1,4]oxazine-2-carboxamide, N-[[2-(1-azetidinylsulfonyl)-4-fluorophenyl]methyl]-4,6,7,9-tetrahydro-3-hydroxy-9,9-dimethyl-4-oxo-]",2 to 100 nM
4,"CC1(C)OCCn2c1nc(C(=O)NCc1ccccc1-c1ccc3[nH]ccc3c1)c(O)c2=O [Example 177, Pyrimido[2,1-c][1,4]oxazine-2-carboxamide, 4,6,7,9-tetrahydro-3-hydroxy-N-[[2-(1H-indol-5-yl)phenyl]methyl]-9,9-dimethyl-4-oxo-]",2 to 100 nM
5,"CC1(C)OCCn2c1nc(C(=O)NCc1ccc(F)cc1O)c(O)c2=O [Example 95, Pyrimido[2,1-c][1,4]oxazine-2-carboxamide, N-[(4-fluoro-2-hydroxyphenyl)methyl]-4,6,7,9-tetrahydro-3-hydroxy-9,9-dimethyl-4-oxo-]",2 to 100 nM
6,"C/C(N)=C/C(=O)c1cc(F)ccc1CNC(=O)c1nc2n(c(=O)c1O)CCOC2(C)C [Example 211, Pyrimido[2,1-c][1,4]oxazine-2-carboxamide, N-[[2-[(2Z)-3-amino-1-oxo-2-butenyl]-4-fluorophenyl]methyl]-4,6,7,9-tetrahydro-3-hydroxy-9,9-dimethyl-4-oxo-]",2 to 100 nM
7,"CC1(C)OCCn2c1nc(C(=O)NCCCc1ccc(F)cc1)c(O)c2=O [Example 26, Pyrimido[2,1-c][1,4]oxazine-2-carboxamide, N-[3-(4-fluorophenyl)propyl]-4,6,7,9-tetrahydro-3-hydroxy-9,9-dimethyl-4-oxo-]",2 to 100 nM
8,"CC1(C)OCCn2c1nc(C(=O)NCc1ccc(-n3cncn3)cc1F)c(O)c2=O [Example 22, Pyrimido[2,1-c][1,4]oxazine-2-carboxamide, N-[[2-fluoro-4-(1H-1,2,4-triazol-1-yl)phenyl]methyl]-4,6,7,9-tetrahydro-3-hydroxy-9,9-dimethyl-4-oxo-]",100 to 1000 nM
9,"CC1(C)OCCn2c1nc(C(=O)NCc1ccccn1)c(O)c2=O [Example 141, Pyrimido[2,1-c][1,4]oxazine-2-carboxamide, 4,6,7,9-tetrahydro-3-hydroxy-9,9-dimethyl-4-oxo-N-(2-pyridinylmethyl)-]",2 to 100 nM
10,"CC1(C)OCCn2c1nc(C(=O)NCc1cc(F)cc(C(F)(F)F)c1)c(O)c2=O [Example 237, Pyrimido[2,1-c][1,4]oxazine-2-carboxamide, N-[[3-fluoro-5-(trifluoromethyl)phenyl]methyl]-4,6,7,9-tetrahydro-3-hydroxy-9,9-dimethyl-4-oxo-]",2 to 100 nM
11,"Cc1cccc(CNC(=O)c2nc3n(c(=O)c2O)CCOC3(C)C)c1C [Example 233, Pyrimido[2,1-c][1,4]oxazine-2-carboxamide, N-[(2,3-dimethylphenyl)methyl]-4,6,7,9-tetrahydro-3-hydroxy-9,9-dimethyl-4-oxo-]",2 to 100 nM
12,"CCC1OCCn2c1nc(C(=O)NCc1ccc(C)c(C)c1)c(O)c2=O (stereo not drawn) [Example 13, Pyrimido[2,1-c][1,4]oxazine-2-carboxamide, N-[(3,4-dimethylphenyl)methyl]-9-ethyl-4,6,7,9-tetrahydro-3-hydroxy-4-oxo-]",2 to 100 nM
13,"COc1ncc(-c2ccccc2CNC(=O)c2nc3n(c(=O)c2O)CCOC3(C)C)c(OC)n1 [Example 149, Pyrimido[2,1-c][1,4]oxazine-2-carboxamide, N-[[2-(2,4-dimethoxy-5-pyrimidinyl)phenyl]methyl]-4,6,7,9-tetrahydro-3-hydroxy-9,9-dimethyl-4-oxo-]",2 to 100 nM
14,"COC(=O)c1cccc(CNC(=O)c2nc3n(c(=O)c2O)CCOC3(C)C)c1 [Example 264, Benzoic acid, 3-[[[(4,6,7,9-tetrahydro-3-hydroxy-9,9-dimethyl-4-oxopyrimido[2,1-c][1,4]oxazin-2-yl)carbonyl]amino]methyl]-, methyl ester]",2 to 100 nM
15,"CN1CCN(c2cc(-c3ccccc3CNC(=O)c3nc4n(c(=O)c3O)CCOC4(C)C)ccn2)CC1 [Example 159, Pyrimido[2,1-c][1,4]oxazine-2-carboxamide, 4,6,7,9-tetrahydro-3-hydroxy-9,9-dimethyl-N-[[2-[2-(4-methyl-1-piperazinyl)-4-pyridinyl]phenyl]methyl]-4-oxo-]",100 to 1000 nM
16,"CC1(C)OCCn2c1nc(C(=O)NCc1ccc(F)cc1C(F)(F)F)c(O)c2=O [Example 246, Pyrimido[2,1-c][1,4]oxazine-2-carboxamide, N-[[4-fluoro-2-(trifluoromethyl)phenyl]methyl]-4,6,7,9-tetrahydro-3-hydroxy-9,9-dimethyl-4-oxo-]",2 to 100 nM
17,"Cc1ccncc1-c1ccccc1CNC(=O)c1nc2n(c(=O)c1O)CCOC2(C)C [Example 191, Pyrimido[2,1-c][1,4]oxazine-2-carboxamide, 4,6,7,9-tetrahydro-3-hydroxy-9,9-dimethyl-N-[[2-(4-methyl-3-pyridinyl)phenyl]methyl]-4-oxo-]",2 to 100 nM
18,"CC1(C)OCCn2c1nc(C(=O)NCc1ccccc1C1=CCCC1)c(O)c2=O [Example 200, Pyrimido[2,1-c][1,4]oxazine-2-carboxamide, N-[[2-(1-cyclopenten-1-yl)phenyl]methyl]-4,6,7,9-tetrahydro-3-hydroxy-9,9-dimethyl-4-oxo-]",2 to 100 nM
19,"CN(C)S(=O)(=O)c1cc(F)ccc1CNC(=O)c1nc2n(c(=O)c1O)CCCOC2(C)C [Example 204, 6H-Pyrimido[2,1-c][1,4]oxazepine-2-carboxamide, N-[[2-[(dimethylamino)sulfonyl]-4-fluorophenyl]methyl]-4,7,8,10-tetrahydro-3-hydroxy-10,10-dimethyl-4-oxo-]",2 to 100 nM
20,"CC1(C)OCCn2c1nc(C(=O)NCc1ccc(F)c(Br)c1)c(O)c2=O [Example 30, Pyrimido[2,1-c][1,4]oxazine-2-carboxamide, N-[(3-bromo-4-fluorophenyl)methyl]-4,6,7,9-tetrahydro-3-hydroxy-9,9-dimethyl-4-oxo-]",2 to 100 nM
21,"CSCCC1OCCn2c1nc(C(=O)NCc1ccc(F)cc1)c(O)c2=O (stereo not drawn) [Example 208, Pyrimido[2,1-c][1,4]oxazine-2-carboxamide, N-[(4-fluorophenyl)methyl]-4,6,7,9-tetrahydro-3-hydroxy-9-[2-(methylthio)ethyl]-4-oxo-]",2 to 100 nM
22,"CC1(C)OCCn2c1nc(C(=O)NCc1ccccc1-c1cccc(NS(C)(=O)=O)c1)c(O)c2=O [Example 176, Pyrimido[2,1-c][1,4]oxazine-2-carboxamide, 4,6,7,9-tetrahydro-3-hydroxy-9,9-dimethyl-N-[[3′-[(methylsulfonyl)amino][1,1′-biphenyl]-2-yl]methyl]-4-oxo-]",2 to 100 nM
23,"CCC1OCCn2c1nc(C(=O)NCc1ccc(F)cc1)c(O)c2=O (stereo not drawn) [Example 10, Pyrimido[2,1-c][1,4]oxazine-2-carboxamide, 9-ethyl-N-[(4-fluorophenyl)methyl]-4,6,7,9-tetrahydro-3-hydroxy-4-oxo-]",2 to 100 nM
24,"CC1(C)OCCn2c1nc(C(=O)NCc1cccc(Cl)c1F)c(O)c2=O [Example 266, Pyrimido[2,1-c][1,4]oxazine-2-carboxamide, N-[(3-chloro-2-fluorophenyl)methyl]-4,6,7,9-tetrahydro-3-hydroxy-9,9-dimethyl-4-oxo-]",2 to 100 nM
25,"CC1(C)OCCn2c1nc(C(=O)NCc1ccc(F)cc1N1C(=O)CC[C@@H]1CN=[N+]=[N-])c(O)c2=O [Example 132, (R)—N-(2-(2-(Azidomethyl)-5-oxopyrrolidin-1-yl)-4-fluorobenzyl)-3-hydroxy-9,9-dimethyl-4-oxo-4,6,7,9-tetrahydropyrimido[2,1-c][1,4]oxazine-2-carboxamide]",2 to 100 nM
26,"CC1(C)OCCn2c1nc(C(=O)NCc1ccc3c(c1)OCO3)c(O)c2=O [Example 218, Pyrimido[2,1-c][1,4]oxazine-2-carboxamide, N-(1,3-benzodioxol-5-ylmethyl)-4,6,7,9-tetrahydro-3-hydroxy-9,9-dimethyl-4-oxo-]",2 to 100 nM
27,"CC1(C)OCCn2c1nc(C(=O)NCc1ccccc1-c1cccc(C(=O)N3CCCC3)c1)c(O)c2=O [Example 172, Pyrimido[2,1-c][1,4]oxazine-2-carboxamide, 4,6,7,9-tetrahydro-3-hydroxy-9,9-dimethyl-4-oxo-N-[[3′-(1-pyrrolidinylcarbonyl)[1,1′-biphenyl]-2-yl]methyl]-]",2 to 100 nM
28,"CC1(C)OCCn2c1nc(C(=O)NCc1ccc(F)c(Cl)c1)c(O)c2=O [Example 32, Pyrimido[2,1-c][1,4]oxazine-2-carboxamide, N-[(3-chloro-4-fluorophenyl)methyl]-4,6,7,9-tetrahydro-3-hydroxy-9,9-dimethyl-4-oxo-]",2 to 100 nM
29,"CC(C)Oc1cccc(CNC(=O)c2nc3n(c(=O)c2O)CCOC3(C)C)c1 [Example 263, Pyrimido[2,1-c][1,4]oxazine-2-carboxamide, 4,6,7,9-tetrahydro-3-hydroxy-9,9-dimethyl-N-[[3-(1-methylethoxy)phenyl]methyl]-4-oxo-]",2 to 100 nM
30,"CC1(C)OCCn2c1nc(C(=O)NCc1ccccc1-c1cccnc1)c(O)c2=O [Example 150, Pyrimido[2,1-c][1,4]oxazine-2-carboxamide, 4,6,7,9-tetrahydro-3-hydroxy-9,9-dimethyl-4-oxo-N-[[2-(3-pyridinyl)phenyl]methyl]-]",2 to 100 nM
